Activity calls are given as the source filed them. The calls are words filed in the database; no cut-off is given here.
Tests used:
Hepatitis B virus [1] = experiment: Antiviral activity against HBV infected in human HepAD38 cells assessed as effect on capsid morphology at 20 uM incubated for 3 to 7 days by transmission electron microscopy; assay type: functional, organism-based; details: time 3-7 day
[2] = Hepatotoxicity in C57BL/6 mouse assessed as effect on AST level in serum at 30 mg/kg, po BID measured for 12 days; assay type: toxicity, organism-based; details: in vivo, 288 h, time 12 day
Hepatitis B virus [3] = experiment: Antiviral activity against HBV infected in transgenic C57BL/6 mouse assessed as reduction in intrahepatic 3.5 kb HBV RNA level at 30 mg/kg, po BID measured for 12 days by RT-PCR analysis; assay type: functional, organism-based; details: time 12.0 day
Hepatitis B virus [4] = experiment: Antiviral activity against HBV infected in human HePAD38 cells assessed as reduction in capsid formation upto 10 uM measured for 6 days by agarose gel electrophoresis-based assay; assay type: functional, organism-based; details: time 6.0 day
Hepatitis B virus [5] = experiment: Antiviral activity against HBV infected in transgenic C57BL/6 mouse assessed as reduction in serum HBeAg level at 30 mg/kg, po BID measured for 12 days by ELISA analysis; assay type: functional, organism-based; details: time 12.0 day
Hepatitis B virus [6] = experiment: Antiviral activity against HBV infected in transgenic C57BL/6 mouse assessed as inhibition of viral replication by measuring log reduction in liver HBV DNA level at 30 mg/kg, po BID measured for 12 days by RT-PCR analysis; assay type: functional; details: time 12 day
Hepatitis B virus [7] = experiment: Antiviral activity against HBV infected human HePAD38 cells assessed as reduction in HBeAg level in cell supernatant at 0.625 to 10 uM and measured after 6 days by ELISA analysis; assay type: functional, organism-based; details: dose 0.625-10 µM, time 6.0 day
[8] = Toxicity in C57BL/6 mouse assessed as histopathological changes in liver at 100 mg/kg, po measured after 12 days by H and E staining analysis; assay type: organism-based; details: in vivo, 288 h, time 12 day
Hepatitis B virus [9] = experiment: Antiviral activity against HBV infected in transgenic C57BL/6 mouse assessed as reduction in intrahepatic 3.5 kb HBV RNA level at 100 mg/kg, po BID measured for 12 days by RT-PCR analysis; assay type: functional, organism-based; details: time 12.0 day
Hepatitis B virus [10] = experiment: Antiviral activity against HBV infected in human HePAD38 cells assessed as reduction in intracellular core HBV DNA level at 20 uM incubated for 6 days by qPCR analysis relative to control; assay type: functional; set-up: scale not given: the % may be the effect or the level left; details: time 6 day
Hepatitis B virus [11] = experiment: Antiviral activity against HBV infected in transgenic C57BL/6 mouse assessed as inhibition of viral replication by measuring log reduction in liver HBV DNA level at 100 mg/kg, po BID measured for 12 days by RT-PCR analysis; assay type: functional; details: time 12 day
Hepatitis B virus [12] = experiment: Antiviral activity against HBV infected in transgenic C57BL/6 mouse assessed as inhibition of viral replication by measuring log reduction in serum HBV DNA level at 30 mg/kg, po BID measured for 12 days by RT-PCR analysis; assay type: functional; details: time 12 day
Hepatitis B virus [13] = experiment: Antiviral activity against HBV infected in transgenic C57BL/6 mouse assessed as reduction in serum HBsAg level at 100 mg/kg, po BID measured for 12 days by ELISA analysis; assay type: functional, organism-based; details: time 12.0 day
[14] = Hepatotoxicity in C57BL/6 mouse assessed as effect on AST level in serum at 100 mg/kg, po BID measured for 12 days; assay type: toxicity, organism-based; details: in vivo, 288 h, time 12 day
[15] = Hepatotoxicity in C57BL/6 mouse assessed as effect on ALT level in serum at 30 mg/kg, po BID measured for 12 days; assay type: toxicity, organism-based; details: in vivo, 288 h, time 12 day
[16] = Toxicity in C57BL/6 mouse assessed as histopathological changes in liver at 30 mg/kg, po measured after 12 days by H and E staining analysis; assay type: organism-based; details: in vivo, 288 h, time 12 day
Hepatitis B virus [17] = experiment: Antiviral activity against HBV infected in human HePAD38 cells assessed as reduction in capsid formation measured for 6 days by agarose gel electrophoresis-based assay; assay type: functional, organism-based; details: time 6.0 day
Hepatitis B virus [18] = experiment: Antiviral activity against HBV infected in human HePAD38 cells assessed as reduction in intracellular 3.5 Kb HBV RNA level at 0.625 to 10 uM and incubated for 6 days by real-time PCR analysis; assay type: functional, organism-based; details: dose 0.625-10 µM, time 6.0 day
Hepatitis B virus [19] = experiment: Antiviral activity against HBV infected in transgenic C57BL/6 mouse assessed as reduction in serum HBeAg level at 100 mg/kg, po BID measured for 12 days by ELISA analysis; assay type: functional, organism-based; details: time 12.0 day
Hepatitis B virus [20] = experiment: Antiviral activity against HBV infected in human HePAD38 cells assessed as decay of viral core protein by agarose gel electrophoresis-based assay; assay type: functional, organism-based
Hepatitis B virus [21] = experiment: Antiviral activity against HBV infected in human HePAD38 cells assessed as reduction in […] level upto10 uM measured for 6 days by agarose gel electrophoresis-based assay; assay type: functional, organism-based; details: dose 10.0 µM, time 6.0 day
Hepatitis B virus [22] = experiment: Antiviral activity against HBV infected in transgenic C57BL/6 mouse assessed as inhibition of viral replication by measuring log reduction in serum HBV DNA level at 100 mg/kg, po BID measured for 12 days by RT-PCR analysis; assay type: functional; details: time 12 day
Hepatitis B virus [23] = experiment: Antiviral activity against ETV-resistant HBV infected in human HepG2 cells assessed as inhibition of viral replication; assay type: functional, organism-based
Hepatitis B virus [24] = experiment: Antiviral activity against HBV infected in human HePAD38 assessed as reduction on HBsAg level at 20 uM by ELISA analysis relative to control; assay type: functional; set-up: scale not given: the % may be the effect or the level left
Hepatitis B virus [25] = experiment: Antiviral activity against wild type HBV infected in human HepG2 cells assessed as inhibition of viral replication; assay type: functional, organism-based
Hepatitis B virus [26] = experiment: Antiviral activity against HBV infected in human HePAD38 cells assessed as reduction in intracellular 3.5 Kb HBV RNA level at 0.625 to 10 uM and incubated for 6 days by Northern blot analysis; assay type: functional, organism-based; details: dose 0.625-10 µM, time 6.0 day
Hepatitis B virus [27] = experiment: Effect on capsid morphology in human HePAD38 cells infected with Hepatitis B virus at 5 uM incubated for 6 days by immunofluorescence analysis; assay type: functional, organism-based; details: time 6.0 day
Hepatitis B virus [28] = experiment: Antiviral activity against HBV infected in human HePAD38 cells assessed as reduction in HBV core DNA level and incubated for 6 days by southern blot analysis; assay type: functional, organism-based; details: dose 0.625-10 µM, time 6.0 day
Hepatitis B virus [29] = experiment: Antiviral activity against HBV infected in transgenic C57BL/6 mouse assessed as reduction in serum HBsAg level at 30 mg/kg, po BID measured for 12 days by ELISA analysis; assay type: functional, organism-based; details: time 12.0 day
Hepatitis B virus [30] = experiment: Antiviral activity against HBV genotype A infected in human HepG2 cells assessed as inhibition of viral replication; assay type: functional, organism-based
Hepatitis B virus [31] = experiment: Antiviral activity against HBV infected human HePAD38 cells assessed as reduction in HBsAg level in cell supernatant at 0.625 to 10 uM and measured after 6 days by ELISA analysis; assay type: functional, organism-based; details: dose 0.625-10 µM, time 6.0 day
Hepatitis B virus [32] = experiment: Antiviral activity against HBV infected in human HePAD38 assessed as reduction on HBeAg level at 20 uM by ELISA analysis relative to control; assay type: functional; set-up: scale not given: the % may be the effect or the level left
[33] = Cytotoxicity against human HepAD38 cells assessed as reduction in cell viability incubated for 6 days by CCK-8 assay; assay type: functional; details: HePAD38, 144 h, time 6 day
Hepatitis B virus [34] = experiment: Antiviral activity against HBV genotype D infected in human HepG2 cells assessed as inhibition of viral replication; assay type: functional, organism-based
Hepatitis B virus [35] = experiment: Antiviral activity against HBV infected in human HePAD38 cells assessed as reduction in encapsidated pgRNA at 0.625 to 10 uM incubated for 6 days by northern blot analysis; assay type: functional, organism-based; details: dose 0.625-10 µM, time 6.0 day
Hepatitis B virus [36] = experiment: Antiviral activity against HBV genotype C infected in human HepG2 cells assessed as inhibition of viral replication; assay type: functional, organism-based
[37] = Selectivity index, ratio of CC50 for cytotoxicity against human HepAD38 cells to EC50 for antiviral activity against HBV infected in human HePAD38 cells; assay type: toxicity, cell-based; details: read-out: Ratio CC50/EC50
Hepatitis B virus [38] = experiment: Antiviral activity against HBV genotype B infected in human HepG2 cells assessed as inhibition of viral replication; assay type: functional, organism-based
Hepatitis B virus [39] = experiment: Antiviral activity against HBV infected in human HePAD38 cells assessed as reduction in capsid formation at 0.625 to 10 uM measured for 6 days by agarose gel electrophoresis-based assay; assay type: functional, organism-based; details: dose 0.625-10 µM, time 6.0 day
[40] = Hepatotoxicity in C57BL/6 mouse assessed as effect on ALT level in serum at 100 mg/kg, po BID measured for 12 days; assay type: toxicity, organism-based; details: in vivo, 288 h, time 12 day
Hepatitis B virus [41] = experiment: Antiviral activity against HBV infected in human HePAD38 cells assessed as decay of viral capsid protein by agarose gel electrophoresis-based assay; assay type: functional, organism-based
Hepatitis B virus [42] = experiment: Antiviral activity against HBV infected in human HePAD38 cells assessed as reduction of capsid associated HBV DNA; assay type: functional, organism-based

CCOC(=O)c1c(S(=O)(=O)N2CCC[C@H](C(=O)Nc3ccc(F)c(C)c3)C2)c(C)n(CC(F)(F)F)c1C
Activity (Hepatitis B virus [1]): inactive
Activity [2]: Non-Toxic
Activity (Hepatitis B virus [3]): Active
Activity (Hepatitis B virus [4]): Active
Activity (Hepatitis B virus [5]): Active
log(activity) (Hepatitis B virus [6]): 0.43
Activity (Hepatitis B virus [7]): Active
Activity [8]: Non-Toxic
Activity (Hepatitis B virus [9]): Active
Activity (Hepatitis B virus [10]): 12%
log(activity) (Hepatitis B virus [11]): 0.98
log(activity) (Hepatitis B virus [12]): 1.37
Activity (Hepatitis B virus [13]): inactive
Activity [14]: Non-Toxic
Activity [15]: Non-Toxic
Activity [16]: Non-Toxic
Activity (Hepatitis B virus [17]): Dose-Dependent Effect
Activity (Hepatitis B virus [18]): Active
Activity (Hepatitis B virus [19]): Active
Activity (Hepatitis B virus [20]): inactive
Activity (Hepatitis B virus [21]): Active
log(activity) (Hepatitis B virus [22]): 2.42
EC50 (Hepatitis B virus [23]): 7.2 nM
Activity (Hepatitis B virus [24]): 101.8%
EC50 (Hepatitis B virus [25]): 3.1 nM
Activity (Hepatitis B virus [26]): Active
Activity (Hepatitis B virus [27]): inactive
Activity (Hepatitis B virus [28]): Dose-Dependent Effect
Activity (Hepatitis B virus [29]): inactive
EC50 (Hepatitis B virus [30]): 130 nM
Activity (Hepatitis B virus [31]): inactive
Activity (Hepatitis B virus [32]): 36.9%
CC50 [33]: 82300 nM
EC50 (Hepatitis B virus [34]): 240 nM
Activity (Hepatitis B virus [35]): Active
EC50 (Hepatitis B virus [36]): 160 nM
selectivity ratio [37]: 775
EC50 (Hepatitis B virus [38]): 120 nM
Activity (Hepatitis B virus [39]): Active
Activity [40]: Non-Toxic
Activity (Hepatitis B virus [41]): inactive
EC50 (Hepatitis B virus [42]): 110 nM
